According to patent US10968203B2, “Pyrimidinyl-pyridyloxy-naphthyl compounds and methods of treating IRE1-related diseases and disorders” (Genentech, Inc., priority 2017, dated 2021):
Where a name gives a salt, the structure may show the parent alone.

System: XBP1s-luc 293 LUC
Test: cellular PD assay, XBP1s-LUC reporter (Example 903)
Type: cell-based
Conditions: Table 1; read-out: XBP1s-luc 293 LUC (IC50)
In short: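 A luciferase fusion, in frame and expressed only when the XBP1 transcript is spliced, served as the readout of cellular IRE1α activity in an XBP1-Luc reporter line.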

Cc1ccc2c(N3CCC(C)S3(=O)=O)cccc2c1Oc1ncccc1-c1ccnc(N[C@H]2CCCNC2)n1 (mixture of isomers) [Example 245, 5-Methyl-2-(6-methyl-5-((3-(2-((S)-piperidin-3-ylamino)pyrimidin-4-yl)pyridin-2-yl)oxy)naphthalen-1-yl)isothiazolidine 1,1-dioxide] and Cc1ccc2c(N3CCCS3(=O)=O)cccc2c1Oc1ncccc1-c1ccnc(N[C@H]2CCCNC2)n1 [Example 194, (S)-2-(6-Methyl-5-((3-(2-(piperidin-3-ylamino)pyrimidin-4-yl)pyridin-2-yl)oxy)naphthalen-1-yl)isothiazolidine 1,1-dioxide] are within 1.5-fold of each other in IC50: 0.294 µM for the first, 0.313 µM for the second.

Compared with Cc1ccc2c(NS(=O)(=O)Cc3c(F)cccc3F)c(F)ccc2c1Oc1ncccc1-c1ccnc(N[C@H]2CCCNC2)n1 [Example 213, (S)-1-(2,6-Difluorophenyl)-N-(2-fluoro-6-methyl-5-((3-(2-(piperidin-3-ylamino)pyrimidin-4-yl)pyridin-2-yl)oxy)naphthalen-1-yl)methanesulfonamide], COCCS(=O)(=O)Nc1cccc2c(Oc3ncccc3-c3ccnc(N[C@H]4CCCNC4)n3)c(C)ccc12 [Example 137, (S)-2-Methoxy-N-(6-methyl-5-((3-(2-(piperidin-3-ylamino)pyrimidin-4-yl)pyridin-2-yl)oxy)naphthalen-1-yl)ethanesulfonamide] is 100-fold higher in IC50: 0.00457 µM for the first, 0.477 µM for the second.

Going from CCC1CCC(=O)N1c1cccc2c(Oc3ncccc3-c3ccnc(N[C@H]4CCCNC4)n3)c(C)ccc12 (single isomer, unassigned) [Example 357] to CC[C@H](C)C(=O)Nc1cccc2c(Oc3ncccc3-c3ccnc(N[C@H]4CCCNC4)n3)c(C)ccc12 [Example 203, (S)-2-methyl-N-(6-methyl-5-((3-(2-(((S)-piperidin-3-yl)amino)pyrimidin-4-yl)pyridin-2-yl)oxy)naphthalen-1-yl)butanamide], the IC50 falls from 0.26 µM to 0.161 µM (1.6-fold).

Cc1ccc2c(NC[C@H]3CC3(F)F)cccc2c1Oc1ncccc1-c1ccnc(N[C@H]2CCCNC2)n1 (single isomer, unassigned) [Example 342] and Cc1ccc2c(NCC[C@H](C)O)cccc2c1Oc1ncccc1-c1ccnc(N[C@H]2CCCNC2)n1 (single isomer, unassigned) [Example 202] are within 1.5-fold of each other in IC50: 0.121 µM for the first, 0.123 µM for the second.

Going from Cc1ccc2c(NC(=O)[C@H]3CC34CCC4)c(F)ccc2c1Oc1ncccc1-c1ccnc(N[C@H]2CCCNC2)n1 (single isomer, unassigned) [Example 386] to Cc1ccc2c(NC(=O)[C@H]3CC34CCC4)cccc2c1Oc1ncccc1-c1ccnc(N[C@H]2CCCNC2)n1 (single isomer, unassigned) [Example 339], the IC50 falls from 0.28 µM to 0.137 µM (2-fold). The second is the more potent here.

Compared with Cc1ccc2c(NS(=O)(=O)[C@@H](C)c3ccccc3)cccc2c1Oc1ncccc1-c1ccnc(N[C@H]2CCCNC2)n1 (single isomer, unassigned) [Example 214], Cc1ncc(S(=O)(=O)Nc2cccc3c(Oc4ncccc4-c4ccnc(N[C@H]5CCCNC5)n4)c(C)ccc23)s1 [Example 210, (S)-2-Methyl-N-(6-methyl-5-((3-(2-(piperidin-3-ylamino)pyrimidin-4-yl)pyridin-2-yl)oxy)naphthalen-1-yl)thiazole-5-sulfonamide] is 6-fold higher in IC50: 0.076 µM for the first, 0.459 µM for the second.

Compared with Cc1ccc2c(NC(=O)[C@H]3CC34CC4)c(F)ccc2c1Oc1ncccc1-c1ccnc(N[C@@H]2CNC[C@H](C)C2)n1 (single isomer, unassigned) [Example 388], Cc1ccc2c(NC(=O)CC(C)(C)C)c(F)ccc2c1Oc1ncccc1-c1ccnc(N[C@@H]2CNC[C@H](C)C2)n1 [Example 374, N-(2-Fluoro-6-methyl-5-((3-(2-(((3S,5R)-5-methylpiperidin-3-yl)amino)pyrimidin-4-yl)pyridin-2-yl)oxy)naphthalen-1-yl)-3,3-dimethylbutanamide] is 3.5-fold lower in IC50: 0.136 µM for the first, 0.0394 µM for the second. The second is the more potent here.

Going from Cc1ccc2c(NC(=O)[C@@H]3CC3(C)C)cccc2c1Oc1ncccc1-c1ccnc(N[C@H]2CCCNC2)n1 (single isomer, unassigned) [Example 287] to Cc1ccc2c(NC(=O)C3(C)CC3)c(F)ccc2c1Oc1ncccc1-c1ccnc(N[C@H]2CCCNC2)n1 [Example 365, (S)—N-(2-Fluoro-6-methyl-5-((3-(2-(piperidin-3-ylamino)pyrimidin-4-yl)pyridin-2-yl)oxy)naphthalen-1-yl)-1-methylcyclopropanecarboxamide], the IC50 rises from 0.0394 µM to 0.438 µM (11-fold).

Same assay, conditions: Table 2; read-out: XBP1s-luc 293 LUC (IC50)

Going from COc1cccc(CS(=O)(=O)Nc2c(F)ccc3c(Oc4ncccc4-c4ccnc(N[C@H]5CCCNC5)n4)c(C)ccc23)c1 [Example 429, (S)—N-(2-Fluoro-6-methyl-5-((3-(2-(piperidin-3-ylamino)pyrimidin-4-yl)pyridin-2-yl)oxy)naphthalen-1-yl)-1-(3-methoxyphenyl)methanesulfonamide hydrochloride] to CCCCS(=O)(=O)Nc1c(F)ccc2c(Oc3ncccc3-c3ccnc(N[C@H]4CCCNC4)n3)c(C)ccc12 [Example 397, (S)—N-(2-Fluoro-6-methyl-5-((3-(2-(piperidin-3-ylamino)pyrimidin-4-yl)pyridin-2-yl)oxy)naphthalen-1-yl)butane-1-sulfonamide hydrochloride], the IC50 rises from 0.005 µM to 0.034 µM (6.8-fold).

Going from Cc1ccc2c(NS(=O)(=O)Cc3ccccc3)c(F)ccc2c1Oc1ncccc1-c1ccnc(N[C@@H]2CNC[C@@H](F)C2)n1 (single isomer, unassigned) [Example 418, hydrochloride] to Cc1ccc2c(NS(=O)(=O)Cc3ccc(C#N)cc3)c(F)ccc2c1Oc1ncccc1-c1ccnc(N[C@@H]2CNC[C@@H](F)C2)n1 (single isomer, unassigned) [Example 484, hydrochloride], the IC50 rises from 0.002 µM to 0.005 µM (2.5-fold).

Cc1ccc2c(NS(=O)(=O)C[C@@H]3CCC3(F)F)c(F)ccc2c1Oc1ncccc1-c1ccnc(N[C@H]2CCCNC2)n1 (single isomer, unassigned) [Example 470, hydrochloride] and Cc1ccc2c(NS(=O)(=O)CC3CC3)c(F)ccc2c1Oc1ncccc1-c1ccnc(N[C@H]2CCCNC2)n1 [Example 405, (S)-1-Cyclopropyl-N-(2-fluoro-6-methyl-5-((3-(2-(piperidin-3-ylamino)pyrimidin-4-yl)pyridin-2-yl)oxy)naphthalen-1-yl)methanesulfonamide hydrochloride] are within 1.5-fold of each other in IC50: 0.024 µM for the first, 0.025 µM for the second.

Going from Cc1nc(CS(=O)(=O)Nc2c(F)ccc3c(Oc4ncccc4-c4ccnc(N[C@@H]5CNC[C@@H](F)C5)n4)c(C)ccc23)cs1 (single isomer, unassigned) [Example 490, hydrochloride] to CC/C(F)=C/S(=O)(=O)Nc1c(F)ccc2c(Oc3ncccc3-c3ccnc(N[C@H]4CCCNC4)n3)c(C)ccc12 [Example 457, (S,Z)-2-Fluoro-N-(2-fluoro-6-methyl-5-((3-(2-(piperidin-3-ylamino)pyrimidin-4-yl)pyridin-2-yl)oxy)naphthalen-1-yl)but-1-ene-1-sulfonamide hydrochloride], the IC50 rises from 0.004 µM to 0.105 µM (26-fold). The first is the more potent here.

Cc1ccc2c(NC[C@@H](C)C#N)cccc2c1Oc1ncccc1-c1ccnc(N[C@H]2CCCNC2)n1 (single isomer, unassigned) [Example 414, hydrochloride] and CCCN(C)S(=O)(=O)Nc1c(F)ccc2c(Oc3ncccc3-c3ccnc(N[C@H]4CCCNC4)n3)c(C)ccc12 [Example 420, 4-[2-[[6-Fluoro-2-methyl-5-[[methyl(propyl)sulfamoyl]amino]-1-naphthyl]oxy]-3-pyridyl]-2-[[(3S)-3-piperidyl]amino]pyrimidine hydrochloride] are within 1.5-fold of each other in IC50: 0.059 µM for the first, 0.041 µM for the second.
